# Experimental data reported in patent publication US20100291592A1, “NOVEL MARKER FOR SENSITIVITY AGAINST SULFONAMIDE COMPOUND” (priority 2006, published 2010).
# Assays:
# [1] = test system: human non-small cell lung cancer cell line (A549); assay: Anti-tumor effect on subcutaneous transplant model of A549; assay type: in vivo, nude mouse; settings: 50 or 200 mg/kg orally twice a day for 7 days
# Protocol: Human non-small-cell lung cancer cell line PC9 (obtained from Immuno-Biological laboratories Co., Ltd.), human non-small-cell lung cancer cell line A549 (obtained from Dainippon Pharmaceutical), human colon cancer cell line WiDr (obtained from Dainippon Pharmaceutical) and human colon cancer cell line HCT116 (obtained from ATCC) were cultured in RPMI1640 (containing 10% FBS) in a 5% carbon dioxide incubator at 37° C. to about 80% confluence, and the cells were collected with trypsin-EDTA. Using a phosphate buffer for PC9, WiDr and HCT116 and a 50% matrigel-containing phosphate buffer for A549, 5×10^7 cells/mL suspensions were prepared, respectively. Then, 0.1 mL each of the resulting cell suspensions was subcutaneously transplanted to the side of a nude mouse.
# For PC9, 8 days after the transplantation, E7820 was orally administered for 50 mg/kg, 100 mg/kg or 200 mg/kg twice a day for 14 days. For A549, 24 days after the transplantation, E7820 was orally administered for 50 mg/kg or 200 mg/kg twice a day for 7 days. For WiDr, 11 days after the transplantation, E7820 was orally administered for 50 mg/kg, 100 mg/kg or 200 mg/kg twice a day for 14 days. […]
# The major and minor axes of tumors were measured with Digimatic caliper (Mitsutoyo), and tumor volumes and relative tumor volumes were calculated according to the following formulae. […]
# [2] = test system: EGFR1; assay: EGFR1 expression level in cultured PC9 (flow cytometry); assay type: cell-based, human; settings: for EGFR1 expression level (% of control) PC9: two days of culture
# Protocol: (§1) PC9 or A549 was suspended in RPMI1640 (containing 10% FBS) to 1×10^5 cells/ml. Then, 1 ml each of these suspensions was placed into each well of a 6-well plate and cultured in a 5% carbon dioxide incubator at 37° C. On the following day, 1 ml each of E7820 culture dilutions at respective concentrations (0-20 μM) was added to the cells in each well for further culture. After two days of culture, the cells were collected with trypsin-EDTA according to a routine procedure, which were suspended in PBS containing 0.5% BSA. Subsequently, an anti-EGFR1 antibody (BD Biosciences) was added to these suspensions and incubated at 4° C. for 30 minutes. Centrifugation and washing with PBS were carried out according to routine procedures to remove an excessive amount of the antibody. Then, an RPE-labeled anti-mouse IgG antibody was added to these suspensions and incubated at 4° C. for 30 minutes. Centrifugation and washing with PBS were carried out according to routine procedures to remove an excessive amount of the antibody. Finally, the EGFR1 expression level in PC9 and A549 were determined with FACSCalibur (Japan Becton, Dickinson and Company).
# [3] = test system: EGFR1; assay: EGFR1 expression level in cultured A549 (flow cytometry); assay type: cell-based, human; settings: for EGFR1 expression level (% of control) A549: two days of culture, flow cytometry
# Protocol: as §1
# [4] = test system: EGFR1; assay: EGFR1 expression level in HCT116 subcutaneous transplant model (western blotting); assay type: in vivo, nude mouse; settings: for EGFR1 expression level (% of control) HCT116: HCT116 tumor in nude mouse
# Protocol: HCT116 or WiDr was cultured in RPMI1640 (containing 10% FBS) in a 5% carbon dioxide incubator to about 80% confluence. The cells were collected with trypsin-EDTA according to a routine procedure and 5×10^7 cells/mL suspensions were prepared with a phosphate buffer. Then, 0.1 mL each of the resulting suspension was subcutaneously transplanted to the side of a nude mouse.
# For HCT116, 23 days after the transplantation, E7820 was orally administered for 12.5 mg/kg, 50 mg/kg or 200 mg/kg twice a day for 3 days. On the other hand, for WiDr, 18 days after the transplantation, E7820 was orally administered for 50 mg/kg or 200 mg/kg twice a day for 7 days. Four days after the start of administration for HCT116 and 8 days after the start of administration for WiDr, tumors were removed to prepare tumor cell lysates with various protease inhibitors and a cell lysis solution containing 10% glycerol and 1% Triton X-100 in ice. For each tumor cell lysate, an equal amount of protein was fractionated by SDS-PAGE and transferred onto a nitrocellulose membrane (Hybond ECL, Amersham Biosciences). Then, western blotting was performed by using an anti-EGFR1 antibody (Santa Cruz Biotechnology) and horse radish peroxidase-labeled anti-mouse IgG antibody (secondary antibody) (Cell Signaling) according to a routine procedure.
# Detection and quantification of each band were carried out as follows. First, each band was forced to chemically develop a color with Chemiluminescent Substrate (PIERCE), which was then captured as a digital image with Image Master VDS-CL (Amersham Pharmacia Biotech, Tokyo). The digital images were saved as TIF files and numerically converted with Image Master total Lab (version 1.00, Amersham Pharmacia Biotech, Tokyo).
# [5] = test system: cancer cell line resistant to E7070; settings: WO2006/030941 and WO2006/030947; cited from earlier work
smiles,measurement,setting,value
"Cc1ccc(NS(=O)(=O)c2cccc(C#N)c2)c2[nH]cc(C#N)c12 [E7820, N-(3-cyano-4-methyl-1H-indole-7-yl)-3-cyanobenzenesulfonamide]",Anti-tumor effect (relative tumor volume),[1],showed anti-tumor effects
same,EGFR1 expression level (% of control) PC9,"[2]; PC9, E7820 0.01 μM",95 % of control
same,EGFR1 expression level (% of control) PC9,"[2]; PC9, E7820 0.03 μM",91 % of control
same,EGFR1 expression level (% of control) PC9,"[2]; PC9, E7820 0.1 μM",80 % of control
same,EGFR1 expression level (% of control) PC9,"[2]; PC9, E7820 0.3 μM",65 % of control
same,EGFR1 expression level (% of control) PC9,"[2]; PC9, E7820 1 μM",49 % of control
same,EGFR1 expression level (% of control) PC9,"[2]; PC9, E7820 3 μM",44 % of control
same,EGFR1 expression level (% of control) PC9,"[2]; PC9, E7820 10 μM",37 % of control
same,Effect on EGFR1 expression level (in words),"[2]; cultured PC9, dose-dependent",greatly decreased the EGFR1 expression level
same,EGFR1 expression level (% of control) A549,"[3]; A549, E7820 0.01 μM",93 % of control
same,EGFR1 expression level (% of control) A549,"[3]; A549, E7820 0.03 μM",97 % of control
same,EGFR1 expression level (% of control) A549,"[3]; A549, E7820 0.1 μM",95 % of control
same,EGFR1 expression level (% of control) A549,"[3]; A549, E7820 0.3 μM",91 % of control
same,EGFR1 expression level (% of control) A549,"[3]; A549, E7820 1 μM",80 % of control
same,EGFR1 expression level (% of control) A549,"[3]; A549, E7820 3 μM",64 % of control
same,EGFR1 expression level (% of control) A549,"[3]; A549, E7820 10 μM",73 % of control
same,Effect on EGFR1 expression level (in words),"[3]; cultured A549, flow cytometry",slightly decreased the EGFR1 expression level
same,Effect on EGFR1 expression level (in words),"[4]; HCT116 transplanted tumors, dose-dependent",decreased the EGFR1 expression level
same,EGFR1 expression level (% of control) HCT116,[4]; 12.5 mg/kg orally twice a day for 3 days,37 % of control
same,EGFR1 expression level (% of control) HCT116,[4]; 50 mg/kg orally twice a day for 3 days,47 % of control
same,EGFR1 expression level (% of control) HCT116,[4]; 200 mg/kg orally twice a day for 3 days,42 % of control
same,Cross-resistance of E7070-resistant cancer cell line (antiproliferative activity),[5],cross-resistance
